Where a name gives a salt, the structure may show the parent alone.
Target: T1, recombinant guanylate cyclase reporter cell line (Rattus norvegicus, UniProt P20595)
T1 construct: expressed in transfected cells
T1 sequence (P20595 1-619): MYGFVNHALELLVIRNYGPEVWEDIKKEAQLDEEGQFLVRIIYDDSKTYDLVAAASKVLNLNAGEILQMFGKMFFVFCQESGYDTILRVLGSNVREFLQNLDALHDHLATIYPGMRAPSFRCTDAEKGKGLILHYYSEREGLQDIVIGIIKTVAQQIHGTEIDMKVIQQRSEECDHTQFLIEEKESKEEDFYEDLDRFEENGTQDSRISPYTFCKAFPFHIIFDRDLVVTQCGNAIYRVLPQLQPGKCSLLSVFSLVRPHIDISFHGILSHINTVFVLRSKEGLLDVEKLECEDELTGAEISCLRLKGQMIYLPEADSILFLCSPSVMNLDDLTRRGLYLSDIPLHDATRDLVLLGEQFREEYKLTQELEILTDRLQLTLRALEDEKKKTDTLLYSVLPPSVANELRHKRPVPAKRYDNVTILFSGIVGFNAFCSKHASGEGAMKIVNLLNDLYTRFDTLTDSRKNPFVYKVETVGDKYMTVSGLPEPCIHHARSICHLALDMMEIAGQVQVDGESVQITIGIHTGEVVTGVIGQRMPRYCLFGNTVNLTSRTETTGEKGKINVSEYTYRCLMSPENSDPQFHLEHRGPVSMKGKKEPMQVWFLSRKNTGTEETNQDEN
T1 sequence (P19686 1-690 partner): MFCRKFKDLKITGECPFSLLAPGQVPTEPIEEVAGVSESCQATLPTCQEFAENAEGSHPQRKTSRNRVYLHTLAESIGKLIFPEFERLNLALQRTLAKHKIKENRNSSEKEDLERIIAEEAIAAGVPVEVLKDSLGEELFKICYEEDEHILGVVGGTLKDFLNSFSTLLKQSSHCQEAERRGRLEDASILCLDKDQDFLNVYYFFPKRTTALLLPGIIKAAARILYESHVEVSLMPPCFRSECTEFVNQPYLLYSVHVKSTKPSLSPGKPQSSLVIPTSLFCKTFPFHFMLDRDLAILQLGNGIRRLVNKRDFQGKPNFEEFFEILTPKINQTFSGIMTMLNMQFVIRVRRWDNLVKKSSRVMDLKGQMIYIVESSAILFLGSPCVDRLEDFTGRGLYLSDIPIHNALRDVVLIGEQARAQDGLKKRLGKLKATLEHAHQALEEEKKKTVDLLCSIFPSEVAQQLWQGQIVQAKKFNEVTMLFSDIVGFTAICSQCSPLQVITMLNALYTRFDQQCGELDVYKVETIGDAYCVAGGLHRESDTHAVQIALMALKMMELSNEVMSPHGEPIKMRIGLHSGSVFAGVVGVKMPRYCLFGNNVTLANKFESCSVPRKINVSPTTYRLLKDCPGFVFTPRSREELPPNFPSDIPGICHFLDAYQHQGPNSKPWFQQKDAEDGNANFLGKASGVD
Test: Effect on a recombinant guanylate cyclase reporter cell line
Format: cell-based
Conditions: in some cases mean values from individual determinations; for MEC: MEC = minimum effective concentration; for EC50: half maximal effective concentration
Method: The cellular activity of the compounds according to the invention was determined using a recombinant guanylate cyclase reporter cell line, as described in F. Wunder et al., Anal. Biochem. 339, 104-112 (2005).

| MEC | EC50 | MEC (hydrochloride) | SMILES |
| --- | --- | --- | --- |
| 1.0 nM | 3.8 nM |  | O=C(O)c1cnn(C2CCCN(c3cc(Cl)ccc3-c3ccc(N4CCN(CC5CC5(F)F)CC4)cc3)C2)c1C(F)(F)F (mixture of isomers) [Example 31, 1-[1-[5-Chloro-2-[4-[4-[[2,2-difluorocyclopropyl]methyl]piperazin-1-yl]phenyl]phenyl]-3-piperidyl]-5-(trifluoromethyl)pyrazole-4-carboxylic acid hydrochloride] |
| 10.0 nM | 47.5 nM |  | CN1CCN(c2ccc(-c3ccc(Cl)cc3N3CCCC(n4ncc(C(=O)O)c4C(F)(F)F)C3)cc2)CC1 (single isomer, unassigned) [Example 1, 1-[1-[5-Chloro-2-[4-(4-methylpiperazin-1-yl)phenyl]phenyl]-3-piperidyl]-5-(trifluoromethyl)pyrazole-4-carboxylic acid] |
|  | 28.8 nM | 5.5 nM | CN1CCN(c2ccc(-c3ccc(Cl)cc3N3CCCC(n4ncc(C(=O)O)c4C(F)(F)F)C3)cc2)CC1 (single isomer, unassigned) [Example 2, 1-{1-[4-Chloro-4′-(4-methylpiperazin-1-yl)[1,1′-biphenyl]-2-yl]piperidin-3-yl}-5-(trifluoromethyl)-1H-pyrazole-4-carboxylic acid hydrochloride] |
| 10.0 nM | 66.5 nM |  | CCN1CCN(c2ccc(-c3ccc(Cl)cc3N3CCCC(n4ncc(C(=O)O)c4C(F)(F)F)C3)cc2)CC1 (single isomer, unassigned) [Example 3, 1-{1-[4-Chloro-4′-(4-ethylpiperazin-1-yl)[1,1′-biphenyl]-2-yl]piperidin-3-yl}-5-(trifluoromethyl)-1H-pyrazole-4-carboxylic acid hydrochloride] |
| 3.0 nM | 16 nM |  | CCCN1CCN(c2ccc(-c3ccc(Cl)cc3N3CCCC(n4ncc(C(=O)O)c4C(F)(F)F)C3)cc2)CC1 (single isomer, unassigned) [Example 4, 1-[1-[5-Chloro-2-[4-(4-propylpiperazin-1-yl)phenyl]phenyl]-3-piperidyl]-5-(trifluoromethyl)pyrazole-4-carboxylic acid hydrochloride] |
| 1.0 nM | 4.8 nM |  | N#CCCN1CCN(c2ccc(-c3ccc(Cl)cc3N3CCCC(n4ncc(C(=O)O)c4C(F)(F)F)C3)cc2)CC1 (single isomer, unassigned) [Example 5, 1-[1-[5-Chloro-2-[4-[4-(2-cyanoethyl)piperazin-1-yl]phenyl]phenyl]-3-piperidyl]-5-(trifluoromethyl)pyrazole-4-carboxylic acid] |
| 10.0 nM | 88 nM |  | CC(C)N1CCN(c2ccc(-c3ccc(Cl)cc3N3CCCC(n4ncc(C(=O)O)c4C(F)(F)F)C3)cc2)CC1 (single isomer, unassigned) [Example 6, 1-[1-[5-Chloro-2-[4-(4-isopropylpiperazin-1-yl)phenyl]phenyl]-3-piperidyl]-5-(trifluoromethyl)pyrazole-4-carboxylic acid hydrochloride] |
|  | 53 nM | 10.0 nM | O=C(O)c1cnn(C2CCCN(c3cc(Cl)ccc3-c3ccc(N4CCN(C[C@@H]5C[C@@H]5F)CC4)cc3)C2)c1C(F)(F)F (single isomer, unassigned) [Example 8, hydrochloride] |
| 0.3 nM | 1.1 nM |  | O=C(O)c1cnn(C2CCCN(c3cc(Cl)ccc3-c3ccc(N4CCN(CC5(F)CC5)CC4)cc3)C2)c1C(F)(F)F (single isomer, unassigned) [Example 9, 1-[1-[5-Chloro-2-[4-[4-[(1-fluorocyclopropyl)methyl]piperazin-1-yl]phenyl]phenyl]-3-piperidyl]-5-(trifluoromethyl)pyrazole-4-carboxylic acid hydrochloride] |
| 3.0 nM | 24.5 nM |  | CC(C)(F)CN1CCN(c2ccc(-c3ccc(Cl)cc3N3CCCC(n4ncc(C(=O)O)c4C(F)(F)F)C3)cc2)CC1.Cl (single isomer, unassigned) [Example 10, 1-[1-[5-Chloro-2-[4-[4-(2-fluoro-2-methyl-propyl)piperazin-1-yl]phenyl]phenyl]-3-piperidyl]-5-(trifluoromethyl)pyrazole-4-carboxylic acid hydrochloride] |
| 0.3 nM | 1.4 nM |  | CC(F)(F)CN1CCN(c2ccc(-c3ccc(Cl)cc3N3CCCC(n4ncc(C(=O)O)c4C(F)(F)F)C3)cc2)CC1 (single isomer, unassigned) [Example 11, 1-[1-[5-Chloro-2-[4-[4-(2,2-difluoropropyl)piperazin-1-yl]phenyl]phenyl]-3-piperidyl]-5-(trifluoromethyl)pyrazole-4-carboxylic acid hydrochloride] |
|  | 4.6 nM | 1.0 nM | O=C(O)c1cnn(C2CCCN(c3cc(Cl)ccc3-c3ccc(N4CCN(CC(F)F)CC4)cc3)C2)c1C(F)(F)F (single isomer, unassigned) [Example 12, 1-[1-[5-Chloro-2-[4-[4-(2,2-difluoroethyl)piperazin-1-yl]phenyl]phenyl]-3-piperidyl]-5-(trifluoromethyl)pyrazole-4-carboxylic acid hydrochloride] |
| 3.0 nM | 54 nM |  | O=C(O)c1cnn(C2CCCN(c3cc(Cl)ccc3-c3ccc(N4CCN(CC(F)F)CC4)cc3)C2)c1C(F)(F)F (single isomer, unassigned) [Example 13, 1-[1-[5-Chloro-2-[4-[4-(2,2-difluoroethyl)piperazin-1-yl]phenyl]phenyl]-3-piperidyl]-5-(trifluoromethyl)pyrazole-4-carboxylic acid] |
| 0.3 nM | 3.1 nM |  | O=C(O)c1cnn(C2CCCN(c3cc(Cl)ccc3-c3ccc(N4CCN(CCC(F)F)CC4)cc3)C2)c1C(F)(F)F (single isomer, unassigned) [Example 14, 1-[1-[5-Chloro-2-[4-[4-(3,3-difluoropropyl)piperazin-1-yl]phenyl]phenyl]-3-piperidyl]-5-(trifluoromethyl)pyrazole-4-carboxylic acid hydrochloride] |
| 0.6 nM |  |  | O=C(O)c1cnn(C2CCCN(c3cc(Cl)ccc3-c3ccc(N4CCN(CC(F)(F)F)CC4)cc3)C2)c1C(F)(F)F (single isomer, unassigned) [Example 15, 1-[1-[5-Chloro-2-[4-[4-(2,2,2-trifluoroethyl)piperazin-1-yl]phenyl]phenyl]-3-piperidyl]-5-(trifluoromethyl)pyrazole-4-carboxylic acid] |
| 3.0 nM | 14.4 nM |  | O=C(O)c1cnn(C2CCCN(c3cc(Cl)ccc3-c3ccc(N4CCN(CC(F)(F)F)CC4)cc3)C2)c1C(F)(F)F (single isomer, unassigned) [Example 16, 1-[1-[5-Chloro-2-[4-[4-(2,2,2-trifluoroethyl)piperazin-1-yl]phenyl]phenyl]-3-piperidyl]-5-(trifluoromethyl)pyrazole-4-carboxylic acid] |
| <0.3 nM | 1.4 nM |  | O=C(O)c1cnn(C2CCCN(c3cc(Cl)ccc3-c3ccc(N4CCN(CCC(F)(F)F)CC4)cc3)C2)c1C(F)(F)F (single isomer, unassigned) [Example 17, 1-[1-[5-Chloro-2-[4-[4-(3,3,3-trifluoropropyl)piperazin-1-yl]phenyl]phenyl]-3-piperidyl]-5-(trifluoromethyl)pyrazole-4-carboxylic acid hydrochloride] |
| 10.0 nM | 63.5 nM |  | CC(C)(C)CN1CCN(c2ccc(-c3ccc(Cl)cc3N3CCCC(n4ncc(C(=O)O)c4C(F)(F)F)C3)cc2)CC1 (single isomer, unassigned) [Example 18, 1-[1-[5-Chloro-2-[4-[4-(2,2-dimethylpropyl)piperazin-1-yl]phenyl]phenyl]-3-piperidyl]-5-(trifluoromethyl)pyrazole-4-carboxylic acid hydrochloride] |

— patent publication US20240109864A1, “SUBSTITUTED PYRAZOLYL PIPERIDINE CARBOXYLIC ACIDS” (BAYER AKTIENGESELLSCHAFT, priority 2020, published 2024)
